The record followed here is patent US9963474B2, “Mitochondria-targeted dicarbonyl sequestering compounds” (MEDICAL RESEARCH COUNCIL, priority 2013, dated 2018).

Data set [1] concerns RLM respiring on glutamate/malate. Briefly: Effect on respiration of isolated RLM (oxygen electrode). The arrangement: species or system rat. The procedure: (A, B) RLM respiring on glutamate/malate at 37° C. were incubated with various concentrations of MitoG for 7 min in an oxygen electrode to measure coupled respiration (A) before ADP was added to measure phosphorylating respiration (B). Data are the percentage of the respiration rates of untreated controls (dashed lines). (C and D) C2C12 cells (C) or BAECs [Bovine Aortic Endothelial Cells; Cell Applications Inc, San Diego, Calif.] (D) were incubated with MitoG for 24 h and cell survival was then determined using the MTS assay. Data are expressed as a percentage of the untreated controls (dashed line). (E-H) BAECs were incubated with MitoG for 2 h at 37° C. and the cellular oxygen consumption rate (OCR) after the sequential additions of oligomycin, FCCP and antimycin A/rotenone were then measured using a Seahorse XF24 analyser. (E) OCR due to ATP synthesis, (F) OCR due to proton leak, (G) reserve capacity and (H) non-mitochondrial oxygen consumption. […]
Rat liver mitochondria (RLM) were prepared at 4° C. in STE buffer [250 mM sucrose, 5 mM Tris and 1 mM EGTA, pH 7.4 (HCl)] by homogenisation and differential centrifugation. Protein concentration was determined using the biuret assay relative to bovine serum albumin (BSA) and was typically 40-60 mg/ml. […] Oxygen consumption rates were determined from the slopes using Chart v5.5.6. for Mac (AD Instruments, Australia). […]

Data set [2] can be described thus: Partition coefficients between PBS and octan-1-ol. The data set is classed as physicochemical. Particulars: octan-1-ol/PBS, means ± SE of 3 determinations, read-out: Partition coefficient (converted). The procedure:
RP-HPLC was performed using a Gilson 321 pump with a C18 column (Jupiter 300 Å, Phenomenex) with a Widepore C18 guard column (Phenomenex). Samples (1 ml) were injected through a 0.22 μm PVDF filter (Millex, Millipore). HPLC buffer A [0.1% TFA in water] and HPLC buffer B (90% acetonitrile and 0.1% TFA) were used and a gradient was run at 1 ml/min at room temperature as follows: 0-2 min—5% B; 2-17 min—5-100% B; 17-19 min—100% B; 19-22 min—100-5% B. Peaks were detected by absorbance at 220 nm (UV/Vis 151, Gilson) and by fluorescence (excitation and emission wavelengths of 344 and 433 nm; RF-10AXL, Shimadzu). Partition coefficients between PBS and octan-1-ol were determined as previously described.

Data set [3] can be described thus: Reaction with reactive aldehydes followed by RP-HPLC. Particulars: RP-HPLC analysis, data not shown. The text has this:
MitoG reacted with methylglyoxal and glyoxal to form products with identical absorption, fluorescence and RP-HPLC properties (FIGS. 3E, F, G & H) to those of independently synthesized and characterized MQE or QE (FIGS. 3B, C & D). […] Thus the reaction of MitoG with these aldehydes is not diagnostically useful, in contrast to that with 1,2-dicarbonyls, which generates stable, dominant products.

As to `Nc1ccc(OCCCCCC[P+](c2ccccc2)(c2ccccc2)c2ccccc2)cc1N` [MitoG, (6-(3,4-Diaminophenoxy)hexyl)triphenylphosphonium chloride], the “coupled respiration (proton leak)” value in data set [1] (5 μM MitoG) was “slight increase in proton leak”. In data set [1] (up to 5 μM MitoG), the phosphorylating respiration entry is listed as “no effect”. Moreover, in data set [2], the logD is 0.38. In addition, the “reaction with HNE or acrolein” value in data set [3] is reported as “did react, a number of products were formed some of which were unstable”.
